Values of other authors in PubChem BioAssay AID1259409 (Chemical Carcinogenesis Research Information System (CCRIS), 2018).
Where “and” joins values, the source holds several entries; their conditions need not be identical. Equal values may be shown once.

Tested on: rodent chemically induced tumor inhibition, incidence and multiplicity
Assay: CCRIS tumor inhibitor studies
Details: Promoter: NONE USED

SMILES: CCOc1ccc2c(c1)C(C)=CC(C)(C)N2
- tumour outcome (control, treated, inhibition, significance) (Carcinogen: 1,2-DIMETHYLHYDRAZINE, 540-73-8, Dose [Inhibitor]: 0, 0.8% IN DIET BEGINNING 1 WK POST LAST CARCINOGEN DOSE AND CONTINUING FOR 36 WK (STUDY DURATION: 40 WK), Route [Inhibitor]: ORAL, Species: RAT, Strain/Sex: F344/MALE, Target Tissue: Type of Lesion: COLON: ADENOMA, Dose [Carcinogen]: 20 MG/KG 1/WK FOR 4 WK): 1/20 (5%), 4/18 (22%), -340%, not calculated
- tumour outcome (control, treated, inhibition, significance) (Carcinogen: 1,2-DIMETHYLHYDRAZINE, 540-73-8, Dose [Inhibitor]: 0, 0.8% IN DIET BEGINNING 1 WK POST LAST CARCINOGEN DOSE AND CONTINUING FOR 36 WK (STUDY DURATION: 40 WK), Route [Inhibitor]: ORAL, Species: RAT, Strain/Sex: F344/MALE, Target Tissue: Type of Lesion: COLON: CARCINOMA, Dose [Carcinogen]: 20 MG/KG 1/WK FOR 4 WK): 6/20 (30%), 7/18 (39%), -30%, not calculated
- tumour outcome (control, treated, inhibition, significance) (Carcinogen: 7,12-DIMETHYLBENZ[A]ANTHRACENE, 57-97-6, Dose [Inhibitor]: 200 MG IN 1 ML OLIVE OIL ONCE (STUDY DURATION: 18 WK), Route [Inhibitor]: GAVAGE, Species: RAT, Strain/Sex: SPRAGUE-DAWLEY/FEMALE, Target Tissue: Type of Lesion: MAMMARY GLAND: TUMOR, Dose [Carcinogen]: 12 MG IN 1 ML OLIVE OIL ADMINISTERED 1 HR AFTER INHIBITOR): 27/34 (79%), 2/17 (12%), 85%, p<0.01
- tumour outcome (control, treated, inhibition, significance) (Carcinogen: CIPROFIBRATE, 52214-84-3, Dose [Inhibitor]: 0.5% IN DIET FOR 60 WK (STUDY DURATION: 60 WK), Route [Inhibitor]: ORAL, Species: RAT, Strain/Sex: F344/MALE, Target Tissue: Type of Lesion: LIVER: TUMOR, Dose [Carcinogen]: 10 MG/KG BODY WEIGHT IN DIET SIMULTANEOUSLY WITH INHIBITOR FOR 60 WK): 21/25 (84%), 7/24 (29%), 65%, p<0.005 and 22/25 (88%), 4/24 (17%), 81%, p<0.005
- tumour outcome (control, treated, inhibition, significance) (Carcinogen: N-BIS(2-HYDROXYPROPYL)NITROSAMINE, 53609-64-6, Dose [Inhibitor]: 0, 0.8% IN DIET FOR 30 WK BEGINNING POST CARCINOGEN TREATMENT (STUDY DURATION: 32 WK0, Route [Inhibitor]: ORAL, Species: RAT, Strain/Sex: F344/MALE, Target Tissue: Type of Lesion: THYROID: ADENOMA, Dose [Carcinogen]: 0.1% IN DRINKING WATER FOR 2 WK): 1/20 (5%), 19/20 (95%), -1800%, p<0.001
- tumour outcome (control, treated, inhibition, significance) (Carcinogen: N-BIS(2-HYDROXYPROPYL)NITROSAMINE, 53609-64-6, Dose [Inhibitor]: 0, 0.8% IN DIET FOR 30 WK BEGINNING POST CARCINOGEN TREATMENT (STUDY DURATION: 32 WK), Route [Inhibitor]: ORAL, Species: RAT, Strain/Sex: F344/MALE, Target Tissue: Type of Lesion: BLADDER: ADENOMA, Dose [Carcinogen]: 0.1% IN DRINKING WATER FOR 2 WK): 5%, 5%, 0%, not significant
- tumour outcome (control, treated, inhibition, significance) (Carcinogen: N-BIS(2-HYDROXYPROPYL)NITROSAMINE, 53609-64-6, Dose [Inhibitor]: 0, 0.8% IN DIET FOR 30 WK BEGINNING POST CARCINOGEN TREATMENT (STUDY DURATION: 32 WK), Route [Inhibitor]: ORAL, Species: RAT, Strain/Sex: F344/MALE, Target Tissue: Type of Lesion: KIDNEY: TUMOR, Dose [Carcinogen]: 0.1% IN DRINKING WATER FOR 2 WK): 10%, 30%, -200%, not calculated
- tumour outcome (control, treated, inhibition, significance) (Carcinogen: N-BIS(2-HYDROXYPROPYL)NITROSAMINE, 53609-64-6, Dose [Inhibitor]: 0, 0.8% IN DIET FOR 30 WK BEGINNING POST CARCINOGEN TREATMENT (STUDY DURATION: 32 WK), Route [Inhibitor]: ORAL, Species: RAT, Strain/Sex: F344/MALE, Target Tissue: Type of Lesion: LUNG: ADENOMA, Dose [Carcinogen]: 0.1% IN DRINKING WATER FOR 2 WK): 100%, 95%, 5%, not calculated
- tumour outcome (control, treated, inhibition, significance) (Carcinogen: N-BIS(2-HYDROXYPROPYL)NITROSAMINE, 53609-64-6, Dose [Inhibitor]: 0, 0.8% IN DIET FOR 30 WK BEGINNING POST CARCINOGEN TREATMENT (STUDY DURATION: 32 WK), Route [Inhibitor]: ORAL, Species: RAT, Strain/Sex: F344/MALE, Target Tissue: Type of Lesion: LUNG: CARCINOMA, Dose [Carcinogen]: 0.1% IN DRINKING WATER FOR 2 WK): 45%, 15%, 67%, p<0.05
- tumour outcome (control, treated, inhibition, significance) (Carcinogen: N-BIS(2-HYDROXYPROPYL)NITROSAMINE, 53609-64-6, Dose [Inhibitor]: 0, 0.8% IN DIET FOR 30 WK BEGINNING POST CARCINOGEN TREATMENT (STUDY DURATION: 32 WK), Route [Inhibitor]: ORAL, Species: RAT, Strain/Sex: F344/MALE, Target Tissue: Type of Lesion: THYROID: ADENOMA, Dose [Carcinogen]: 0.1% IN DRINKING WATER FOR 2 WK): 5%, 95%, -1800%, p<0.001
- tumour outcome (control, treated, inhibition, significance) (Carcinogen: N-BIS(2-HYDROXYPROPYL)NITROSAMINE, 53609-64-6, Dose [Inhibitor]: 0, 0.8% IN DIET FOR 30 WK BEGINNING POST CARCINOGEN TREATMENT (STUDY DURATION: 32 WK), Route [Inhibitor]: ORAL, Species: RAT, Strain/Sex: F344/MALE, Target Tissue: Type of Lesion: THYROID: CARCINOMA, Dose [Carcinogen]: 0.1% IN DRINKING WATER FOR 2 WK): 20%, 50%, -150%, not calculated
- outcome (Carcinogen: N-ETHYL-N-HYDROXYETHYLNITROSAMINE, 13147-25-6, Dose [Inhibitor]: 0.8% IN DIET BEGINNING 1 WK AFTER LAST CARCINOGEN TREATMENT AND CONTINUING THROUGH DURATION OF STUDY (STUDY DURATION: 32, Route [Inhibitor]: ORAL, Species: RAT, Strain/Sex: F344/MALE, Target Tissue: Type of Lesion: KIDNEY: ADENOCARCINOMA, Dose [Carcinogen]: 0.1% IN DRINKING WATER FOR 2 WK AT BEGINNING OF STUDY): 0/23 (0%), 3/27 (11%), -11%, not significant
- tumour outcome (control, treated, inhibition, significance) (Carcinogen: N-ETHYL-N-HYDROXYETHYLNITROSAMINE, 13147-25-6, Dose [Inhibitor]: 0.8% IN DIET BEGINNING 1 WK AFTER LAST CARCINOGEN TREATMENT AND CONTINUING THROUGH DURATION OF STUDY (STUDY DURATION: 32, Route [Inhibitor]: ORAL, Species: RAT, Strain/Sex: F344/MALE, Target Tissue: Type of Lesion: KIDNEY: ADENOMA, Dose [Carcinogen]: 0.1% IN DRINKING WATER FOR 2 WK AT BEGINNING OF STUDY): 5/23 (22%), 17/27 (63%), -186%, p<0.001
- tumour outcome (control, treated, inhibition, significance) (Carcinogen: N-ETHYL-N-HYDROXYETHYLNITROSAMINE, 13147-25-6, Dose [Inhibitor]: 0.8% IN DIET BEGINNING 1 WK AFTER LAST CARCINOGEN TREATMENT AND CONTINUING THROUGH DURATION OF STUDY (STUDY DURATION: 32, Route [Inhibitor]: ORAL, Species: RAT, Strain/Sex: F344/MALE, Target Tissue: Type of Lesion: LIVER: HEPATOCELLULAR CARCINOMA, Dose [Carcinogen]: 0.1% IN DRINKING WATER FOR 2 WK AT BEGINNING OF STUDY): 11/23 (48%), 3/27 (11%), 77%, p<0.05
- tumour outcome (control, treated, inhibition, significance) (Carcinogen: URETHANE, 51-79-6, Dose [Inhibitor]: 0.75% IN DIET 1/WK FOR 24 HR AFTER OVERNIGHT FAST TREATMENT REPEATED FOR 8 CONSECUTIVE WK BEGINNING 1 D AFTER CARCINOGEN, Route [Inhibitor]: ORAL, Species: MOUSE, Strain/Sex: STRAIN A/MALE, Target Tissue: Type of Lesion: LUNG: TYPE II ALVEOLAR CELL TUMORS, CLARA CELL TUMORS, Dose [Carcinogen]: 500 MG/KG ONCE AT 8 WK OF AGE): 100%, 100%, 0%, not significant
- tumour outcome (control, treated, inhibition, significance) (Dose [Inhibitor]: 0.05% DIET FOR 2 WK STARTING 2 WK PRIOR TO START OF CARCINOGEN TREATMENT (STUDY DURATION: 48 WK), Route [Inhibitor]: ORAL, Species: RAT, Strain/Sex: F344/MALE, Target Tissue: Type of Lesion: LIVER: CELL TUMOR, Dose [Carcinogen]: 4 PPM IN DIET DAILY FOR 6 WK): 3/11 (27%), 1/15 (7%), 74%, not calculated
- tumour outcome (control, treated, inhibition, significance) (Dose [Inhibitor]: 0.05% IN DIET FOR 2 WK STARTING 2 WK PRIOR TO INITIATION OF CARCINOGEN TREATMENT (STUDY DURATION: 48 WK), Route [Inhibitor]: ORAL, Species: RAT, Strain/Sex: F344/MALE, Target Tissue: Type of Lesion: LIVER: LIVER CELL TUMOR, Dose [Carcinogen]: 4 PPM IN DIET FOR 6 WK FOLLOWED BY 40 WK ON CONTROL DIET): 3/11 (27%), 1/12 (8%), 70%, not calculated
- tumour outcome (control, treated, inhibition, significance) (Dose [Inhibitor]: 0.5% DIET FOR 2 WK STARTING 2 WK PRIOR TO START OF CARCINOGEN TREATMENT (STUDY DURATION: 48 WK), Route [Inhibitor]: ORAL, Species: RAT, Strain/Sex: F344/MALE, Target Tissue: Type of Lesion: LIVER: CELL TUMOR, Dose [Carcinogen]: 4 PPM IN DIET DAILY FOR 6 WK): 3/11 (27%), 0/15 (0%), 100%, not calculated
- tumour outcome (control, treated, inhibition, significance) (Dose [Inhibitor]: 0.5% DIET FOR 2 WK STARTING POST CARCINOGEN TREATMENT AND FOLLOWED BY 40 WK ON CONTROL DIET (STUDY DURATION: 48 WK), Route [Inhibitor]: ORAL, Species: RAT, Strain/Sex: F344/MALE, Target Tissue: Type of Lesion: LIVER: CELL TUMOR, Dose [Carcinogen]: 4 PPM DIET DAILY FOR 6 WK): 3/11 (27%), 3/15 (20%), 26%, not significant
- tumour outcome (control, treated, inhibition, significance) (Dose [Inhibitor]: 0.5% DIET FOR 6 WK ADMINISTERED CONCURRENTLY WITH CARCINOGEN TREATMENT FOLLOWED BY 42 WK ON CONTROL DIET (STUDY DURATION, Route [Inhibitor]: ORAL, Species: RAT, Strain/Sex: F344/MALE, Target Tissue: Type of Lesion: LIVER: CELL TUMOR, Dose [Carcinogen]: 4 PPM DIET DAILY FOR 6 WK): 3/11 (27%), 0/15 (0%), 100%, not calculated
- tumour outcome (control, treated, inhibition, significance) (Dose [Inhibitor]: 0.5% IN DIET FOR 2 WK STARTING 2 WK PRIOR TO INITIATION OF CARCINOGEN (STUDY DURATION: 48 WK), Route [Inhibitor]: ORAL, Species: RAT, Strain/Sex: F344/MALE, Target Tissue: Type of Lesion: LIVER: LIVER CELL TUMOR, Dose [Carcinogen]: 4 PPM IN DIET FOR 6 WK FOLLOWED BY 40 WK ON CONTROL DIET): 3/11 (27%), 0/15 (0%), 100%, not calculated
- tumour outcome (control, treated, inhibition, significance) (Dose [Inhibitor]: 0.5% IN DIET FOR 6 WK ADMINISTERED SIMULTANEOUSLY WITH CARCINOGEN FOLLOWED BY 42 WK ON CONTROL DIET (STUDY DURATION: 48, Route [Inhibitor]: ORAL, Species: RAT, Strain/Sex: F344/MALE, Target Tissue: Type of Lesion: LIVER: LIVER CELL TUMOR, Dose [Carcinogen]: 4 PPM IN DIET FOR 6 WK): 3/11 (20%), 0/9 (0%), 100%, not calculated
